9 molecules from ChEMBL document CHEMBL1149762, “Carbamate prodrugs of N-alkylfuramidines” (Eur J Med Chem, 2008) can be followed below.

Data set [1] deals with Pneumocystis carinii. The data set can be described thus: Antimicrobial activity against Pneumocystis carinii in immunosuppressed rat assessed as number of cysts/g of lung at 33.0 umol/kg/day, po relative to control. The format is functional.
Data set [2] concerns Rattus norvegicus. The data set can be described thus: Toxicity against immunosuppressed rat pneumocystis model at 10.8 umol/kg/day, iv. Type of data set: organism-based. The following applies: in vivo.
For data set [3], the system named is Pneumocystis carinii. Kind of data set: Antimicrobial activity against Pneumocystis carinii in immunosuppressed rat assessed as number of cysts/g of lung at 10.8 umol/kg/day, iv relative to control. Type of data set: functional.
The subject of data set [4] is Rattus norvegicus. The data set can be described thus: Toxicity against immunosuppressed rat pneumocystis model at 33.0 umol/kg/day, po. The format is organism-based. The conditions noted are these: in vivo.
Data set [5] relates to Pneumocystis carinii. The data set can be described thus: Antimicrobial activity against Pneumocystis carinii in immunosuppressed rat assessed as number of cysts/g of lung at 9.4 umol/kg/day, iv relative to control. Type of data set: functional.
The test system of data set [6] is Rattus norvegicus. Kind of data set: Toxicity against immunosuppressed rat pneumocystis model at 22.0 umol/kg/day, iv. The format is organism-based. The following applies: in vivo.
The test system of data set [7] is Pneumocystis carinii. The data set can be described thus: Antimicrobial activity against Pneumocystis carinii in immunosuppressed rat assessed as number of cysts/g of lung at 22.0 umol/kg/day, iv relative to control. The format is functional.
Data set [8] concerns Rattus norvegicus. The data set can be described thus: Toxicity against immunosuppressed rat pneumocystis model at 11.0 umol/kg/day, iv. Type of data set: organism-based. The conditions noted are these: in vivo.
For data set [9], the system named is Pneumocystis carinii. The data set can be described thus: Antimicrobial activity against Pneumocystis carinii in immunosuppressed rat assessed as number of cysts/g of lung at 11.0 umol/kg/day, iv relative to control. The format is functional.
For data set [10], the system named is Pneumocystis carinii. The data set can be described thus: Antimicrobial activity against Pneumocystis carinii in immunosuppressed rat assessed as number of cysts/g of lung at 13.3 umol/kg/day, iv relative to control. The format is functional.
In data set [11] the test system is Rattus norvegicus. The data set can be described thus: Toxicity against immunosuppressed rat pneumocystis model at 39.8 umol/kg/day, po. Type of data set: organism-based. The following applies: in vivo.
For data set [12], the system named is Pneumocystis carinii. Kind of data set: Antimicrobial activity against Pneumocystis carinii in immunosuppressed rat assessed as number of cysts/g of lung at 39.8 umol/kg/day, po relative to control. The format is functional.
Data set [13] concerns Rattus norvegicus. Kind of data set: Toxicity against immunosuppressed rat pneumocystis model at 13.3 umol/kg/day, iv. The format is organism-based. The following applies: in vivo.

For `CC(C)NC(=N)c1ccc(-c2ccc(-c3ccc(C(=N)NC(C)C)cc3)o2)cc1`, the Activity in the data set on Pneumocystis carinii [1] is 78.52%; in the data set with Rattus norvegicus [2] it was “Non-toxic”; with Pneumocystis carinii [3] it was 0.26%; in the data set with Rattus norvegicus [4], “Non-toxic”.
With `N=C(NC1CCCC1)c1ccc(-c2ccc(-c3ccc(C(=N)NC4CCCC4)cc3)o2)cc1`, the values for the Activity with Pneumocystis carinii [5], in the data set with Pneumocystis carinii [1] and with Rattus norvegicus [4] were 0.04%, 125.3% and “Non-toxic”, respectively.
Regarding `N/C(=N\C(=O)OCC(Cl)(Cl)Cl)c1ccc(-c2ccc(-c3ccc(/C(N)=N\C(=O)OCC(Cl)(Cl)Cl)cc3)o2)cc1`, the Activity entry in the data set with Rattus norvegicus [6] is recorded as “Non-toxic”; with Pneumocystis carinii [7], 1.72%; with Pneumocystis carinii [1], 5.45%; in the data set with Rattus norvegicus [4], “Non-toxic”.
Consider `O=C(/N=C(\NC1CCCC1)c1ccc(-c2ccc(-c3ccc(/C(=N\C(=O)OCC(Cl)(Cl)Cl)NC4CCCC4)cc3)o2)cc1)OCC(Cl)(Cl)Cl`, for which the Activity entry is listed as “Non-toxic” with Rattus norvegicus [6], 39.84% with Pneumocystis carinii [7], 3.7% with Pneumocystis carinii [1] and “Non-toxic” with Rattus norvegicus [4].
In the case of `CCOC(=O)/N=C(\NC(C)C)c1ccc(-c2ccc(-c3ccc(/C(=N/C(=O)OCC)NC(C)C)cc3)o2)cc1`, the Activity result is “Non-toxic” in the data set with Rattus norvegicus [8], 82.21% with Pneumocystis carinii [9], 51.92% with Pneumocystis carinii [1] and “Non-toxic” in the data set with Rattus norvegicus [4].
Consider `CC(C)N/C(=N\C(=O)OCC(Cl)(Cl)Cl)c1ccc(-c2ccc(-c3ccc(/C(=N\C(=O)OCC(Cl)(Cl)Cl)NC(C)C)cc3)o2)cc1`, for which the Activity result in the data set with Rattus norvegicus [6] is “Non-toxic”; with Pneumocystis carinii [7], 0.02%; in the data set with Pneumocystis carinii [1], 2.01%; in the data set on Rattus norvegicus [4], “Non-toxic”.
As for `N=C(N)c1ccc(-c2ccc(-c3ccc(C(=N)N)cc3)o2)cc1` [FURAMIDINE], the Activity is reported as 0.86% with Pneumocystis carinii [10], “Non-toxic” with Rattus norvegicus [11], 15.67% in the data set with Pneumocystis carinii [12] and “Non-toxic” in the data set with Rattus norvegicus [13].
On to `CONC(=N)c1ccc(-c2ccc(-c3ccc(C(=N)NOC)cc3)o2)cc1` [PAFURAMIDINE], for which the Activity result is “Non-toxic” with Rattus norvegicus [6], 13.99% in the data set on Pneumocystis carinii [7], 1.21% with Pneumocystis carinii [1] and “Non-toxic” in the data set with Rattus norvegicus [4].
On to `N=C(N)c1ccc(OCCCCCOc2ccc(C(=N)N)cc2)cc1` [PENTAMIDINE], for which the Activity in the data set on Pneumocystis carinii [7] is given as 2.75%; with Pneumocystis carinii [1], 67.78%; in the data set with Rattus norvegicus [4], “Non-toxic”.
